# Experimental data reported in US10682328B2, “Compositions and methods for treatment of retinal degenerative diseases” (MOR RESEARCH APPLICATIONS LTD., priority 2014, dated 2020).
# What was measured:
# Type in all cases: cell-based, human
# RPE cells [1] = test: SA-β-gal staining (senescence marker)
# p53, phospho-p38 = test: Western blot of p53 and phospho-p38 in RPE cells under oxidative stress
# Protocol: Western blot analysis was performed by standard protocols (11), p53, p38, phospho-p38, GADPH, and TAK1; antibodies were obtained from Enco, Israel.
# The p53 protein is known to play a critical role in cell-cycle regulation, DNA repair, and programmed cell death (14, 15). In view of this knowledge, and given the above-described observation that TAK1 inhibition reduced apoptosis, the expression of p53 in RPE cells was examined.
# RPE cells [2] = test: Conditioned media (SASP) applied on fresh RPE cells, morphology
# Protocol: FIG. 5 presents photographs showing that TAK1 inhibition contributes to the SASP of the RPE cells, causing hypertrophy and dysfunction. RPE cells were grown with the TAK1 inhibitor and/or H2O2 ([…]) or without treatment. After 2 weeks, conditioned media from the differently treated cells were centrifuge and the supernatants was employed on new freshly cells. Representative photographs of fresh RPE cells treated for 72 hours with the indicated conditioned media are shown. Scale bar=50 μm.
# The most significant effect of senescence, is the acquisition of a senescence-associated secretory phenotype (SASP). SASP can convert senescent cells to proinflammatory cells that promote the secretion of chemokines and cytokines that can affect the microenvironment, including in the human retina (16, 17). To examine the role of TAK1 in this process, RPE cells were treated with TAK1 inhibitor or with H2O2, alone or in combination. After 2 weeks, the media was collected from the three separate treatments, centrifuged and the supernatants (conditioned media) were applied on fresh RPE cells for 72 hours.
# ARPE-19 cells = test: XTT cell viability / proliferation assay
# Protocol: Cell viability assays ARPE-19 cells were seeded in 96-well plates (5000 cells/well) in full medium and were pretreated with the TAK1 inhibitor 5Z-7-oxozeaenol (1 μM) or left untreated for 1 hour. Their viability was then assayed by the XTT assay (cell proliferation kit cat #20-300-1000; Beit Haemek, Israel).
# RPE cells (ARPE-19) [3] = test: FACS cell-cycle phase analysis by DNA content (FL2A)
# Protocol: (§1) Double-staining (annexin and propidium iodide (PI)) assay of RPE cells. RPE cells (ARPE-19, available from ATCC) were treated for one hour with the TAK1 inhibitor {5Z-7-oxozeaenol (1 μM)}, following 200 μM H2O2 for one hour or left untreated. The cells were then washed with fresh medium and after 24 hours were trypsinized, stained, and analyzed by FACS. The percentage of cells in each cell-cycle phase (G1/G0, S, and G2/M) was determined by its DNA content (FL2A).
# To examine the effect of TAK1 inhibition on the RPE cell cycle, RPE cells were treated with TAK1 inhibitor, with or without H2O2. The RPE cells are quiescent and mostly located at the G0/G1 stage (FIGS. 1B and 1C), however, following TAK1 inhibition the percentage of cells at the G0/G1 stage increased to 89% of the total number. […] This phenomenon was reduced upon TAK1 inhibition prior to the oxidative stress (FIGS. 1B and C). The Cell cycle arrest at G0/G1 upon TAK1-inhibition was further supported by the reduction in proliferation of RPE cells observed in the presence of the TAK1 inhibitor (FIG. 1D).
# RPE cells (ARPE-19) [4] = test: Annexin and propidium iodide double-staining FACS assay of RPE cells (apoptosis)
# Protocol: as §1
# The role of TAK1 in the inflammatory response is characterized (12, 13), but little is known about its participation in the response of RPE cells to stress. RPE cells were treated with the TAK1 inhibitor 5Z-7-oxozeaenol (1 μM) for 1 hour before further treatment with H2O2 (200 μM). […] In contrast, in cells treated with the TAK1 inhibitor prior to their treatment with H2O2 the number apoptotic cells was 24% (FIG. 1A). The number of cells in the late apoptosis section of each FACS chart (annexin and Pi, upper right panel) was similar with or without TAK1 inhibitor.
# RPE cells [5] = test: RPE cell size quantification (hypertrophy); conditions: oxidative stress with TAK-1 inhibition; N=40 cells
# Protocol: N=40 cells for each treatment. One of the hallmarks of RPE senescence is cellular hypertrophy. RPE cell size is approximately […]; but upon oxidative stress or genetic mutation RPE cells can undergo enlargement.
# RPE cells [6] = test: Anisomycin toxicity to RPE cells (cellular morphology 72 hours post-treatment); conditions: low levels, 5 minute treatment
# Protocol: To determine possible toxicity of anisomycin to RPE cells, RPE cells were treated with anisomycin at different concentration for 5 minute periods. Following treatment, the medium was replaced and fresh medium was added. 72 hours post-treatment, the cells were photographed. […] Their viability was then assayed by the XTT assay.
# [7] = medium from cells treated 2 weeks with the single agent
smiles,measurement,setting,value
COc1cc(O)c2c(c1)/C=C/C[C@H](O)[C@H](O)C(=O)/C=C\C[C@H](C)OC2=O [5Z-7-oxozeaenol],number of cells expressing SA-β-gal,"RPE cells [1]; TAK1 inhibitor alone, relative to untreated cells",dramatically increased
same,SA-β-gal expression,"RPE cells [1]; TAK1 inhibitor pretreatment then oxidative stress (200 μM H2O2 1 hour), days 13 and 16",strongly increased
same,p53 expression levels over a longer period,"p53, phospho-p38; TAK1 inhibition, days",reduced p53 expression levels slightly more than the untreated cells
same,p38 phosphorylation,"p53, phospho-p38; TAK1 inhibitor 1 μM pretreatment, oxidative stress",inhibition of p38 phosphorylation
same,time of p53 expression peak,"p53, phospho-p38; pretreated with TAK1 inhibitor 1 μM, oxidative stress, control peak after 60 min",10 min
same,phenotype of fresh RPE cells after 72 hours with conditioned medium,RPE cells [2]; [7],hypertrophic phenotype similar to that of senescent cells
same,phenotype of fresh RPE cells after 72 hours with conditioned medium,RPE cells [2]; medium from cells treated with both TAK1 inhibitor and H2O2,aberrant morphology similar to that of atrophic RPE cells
same,proliferation rate (optical density),"ARPE-19 cells; 5Z-7-oxozeaenol 1 μM pretreatment 1 hour, versus untreated cells peaking on day 4",slower proliferation rate
same,G2/M arrest under oxidative stress,RPE cells (ARPE-19) [3]; TAK1 inhibition prior to H2O2 treatment,reduced
same,percentage of cells at the G0/G1 stage,"RPE cells (ARPE-19) [3]; TAK1 inhibitor 1 μM, without H2O2",89%
same,number of apoptotic cells as a percentage of the total number,"RPE cells (ARPE-19) [4]; TAK1 inhibitor 1 μM 1 hour prior to H2O2 200 μM, FACS after 24 hours",24%
same,cell size,RPE cells [5],increases cell size
CC1=C(/C=C/C(C)=C/C=C/C(C)=C/c2cc(/C=C/C=C(C)/C=C/C3=C(C)CCCC3(C)C)cc[n+]2CCO)C(C)(C)CCC1 [A2E],senescent phenotype,RPE cells [1]; A2E 5 μM added to cultured RPE cells,increases the senescent phenotype
OO [H2O2],phenotype of fresh RPE cells after 72 hours with conditioned medium,RPE cells [2]; [7],hypertrophic phenotype similar to that of senescent cells
same,G2/M arrest,RPE cells (ARPE-19) [3]; H2O2 treatment alone,high levels of G2/M arrest
same,number of apoptotic cells as a percentage of the total number,"RPE cells (ARPE-19) [4]; H2O2 alone (200 μM), untreated cells 1.25%",31%
"COc1ccc(C[C@H]2NC[C@H](O)[C@H]2OC(C)=O)cc1 [anisomycin, (2R,3S,4S)-4-hydroxy-2-(4-methoxybenzyl)-pyrrolidin-3-yl acetate]",number of SA-β-Gal positive cells,"RPE cells [1]; H2O2 1 hour, 10 days growth, anisomycin 10 ng/ml 5 min, five more days, versus untreated cells exposed to oxidative stress",reduces the number of SA-β-Gal positive cells
same,rate of cell proliferation,ARPE-19 cells; oxidative stress and anisomycin,did not display reduction
same,toxicity to RPE cells,RPE cells [6],not toxic
